The values that follow come from article PMC6295334 (ACS chemical biology, 2017).

Read-outs that look alike come from different tables or passages of the source.

Test [1] deals with T1, Alg44 (Pseudomonas aeruginosa, UniProt Q9HY69). In words: intact protein LC-MS adduct. It counts as binding.
The target in test [2] is T1, Alg44. In words: intact protein LC-MS adduct. It is filed as binding. The source holds these as a separate data set.

T1 sequence (Q9HY69 14-122): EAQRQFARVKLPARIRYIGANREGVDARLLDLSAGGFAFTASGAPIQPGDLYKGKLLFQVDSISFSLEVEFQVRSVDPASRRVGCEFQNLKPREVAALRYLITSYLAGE

On to `CCC1(C)Cc2ccccc2-c2nc3[nH][nH]c(=S)n3c(=O)c21` (centres unmarked) [compound 925], for which, on Alg44 [1], the IC50 – broadly, the midpoint of a concentration-inhibition curve – stood at 58.1 ± 1.2 µM.

Regarding AC1LFHI9, the midpoint of inhibition against Alg44 [2], the IC50, lay at 63.5 ± 1.3 µM.
